Counter-ions that a name gives are not always drawn.
How the values were obtained:
H1975 cells = experiment: Cell inhibitory activity by MTT assay, H1975 cells; type: cell-based; details: for IC50: cell growth, MTT assay, 72 hours; for Selective inhibitory activity against cell growth [IC50 (A431 cell)/IC50 (H1975 cell)]: ratio of MTT IC50 values
Method: (§1) After the first wash, 1.5 mL of trypsin/EDTA was added to digest the adherent cells until the cells detached. Then 3.5 mL of the culture medium was added to terminate the digestion. The digested cell suspension was transferred to a 15 mL centrifuge tube and centrifuged at 1300 rpm for 3 minutes. The supernatant was discarded and the cells were resuspended in fresh medium. The cells were then counted and diluted to the following concentrations: 27,800 cells per milliliter of H1975 cells, 33,300 cells per milliliter of A431 cells and NIH3T3 cells.
(§2) After the drug was added, the cells were incubated in an incubator for 72 hours. 10 μL of 5 mg/ml MTT (Sigma, M5655) solution was added to each well. The 96-well plate was then incubated in a 37° C. and 5% CO2 incubator for 4 h.
(§3) The plate was then centrifuged at 2000 rpm for 5 min. After the supernatant was removed, 150 μl of DMSO was added to each well and the plate was shaken in a shaker until all crystal violet was dissolved.

NIH3T3 cells = experiment: Toxicity test on NIH3T3 cells by MTT assay; type: cell-based
Method: as §1, §2, §3

[1] = molecular target: EGFR phosphorylation in A431 (EGFR wild-type) cells (Homo sapiens (Human), UniProt P00533); experiment: Inhibition of EGFR phosphorylation in A431 cells (ELISA); type: cell-based; details: 1 h compound treatment, EGF stimulation, read-out: A431 cell (IC50/μM)
Method: (§4) The reagents used in the following methods, the preparation methods of solutions, the cell treatment and the preparation steps of lysate were carried out according to the instructions of R&D DYC3570, R&D DYC1095E and R&D DYC1095BE.
(2) The A431 cell culture medium was replaced with 90 μl of serum-free DMEM medium and the plate was cultured overnight.
(3) The compound to be tested was diluted according to the drug dilution method in MTT assay. 10 μL of the dilated compound solution or diluted DMSO was added to the corresponding wells of the cell culture plate, and the final concentration of DMSO was 0.5%. The plate was cultured at 37° C. in 5% CO2 for 1 hour. […] The cells without EGF and drugs were used as cell control, and the cells treated with EGF without drugs were used as EGF control.
(4) The medium was removed and then 100 μL, of the cell lysis solution was added. The plate was sealed and placed in a refrigerator at −80° C. overnight.
The assay was conducted according to the instructions given in R&D DYC3570E.
(5) 40 μL of cell lysis butler and 60 μL of cell lysis solution were added and the plate was incubated at 25° C. with shaking for 2 hours.
(§5) (7) The detection antibody was diluted with the detection antibody diluent in the proportion specified in the instructions of the kit. 100 μL of the diluent antibody was added to each well and the plate was incubated at 25° C. with shaking in dark for 1 h.
(9) A reagent and B reagent in TMB substrate (R&D DY999) were mixed in 1:1. 100 μL mixture was added to each well and incubated in dark at 25° C. with shaking tor 20 min.
(11) The plate was read with a microplate reader (Thermo Multiskan K3). OD 450 values and OD570 values of the cell control, blank control, and drug treatment wells were measured. ODEGF, ODdrug and ODcell were obtained by subtracting the corresponding OD570 value from the OD 450 value of the same well.
3.3 Data Analysis Inhibition rate (%)=100%×(ODEGF−ODdrug)/(ODEGF−ODcell)

A431 cells = experiment: Cell inhibitory activity by MTT assay, A431 cells; type: cell-based; details: 72 hours
Method: as §1, §2, §3

[2] = molecular target: EGFR phosphorylation in H1975 (EGFR T790M mutant) cells (Homo sapiens (Human), UniProt P00533, L858R/T790M); experiment: Inhibition of EGFR phosphorylation in H1975 cells (ELISA); type: cell-based; details: for IC50: EGFR phosphorylation, ELISA, 1 h compound treatment, read-out: H1975 cell (IC50/μM); for Selective inhibitory activity against targets at the cell level [IC50 (A431 cell)/IC50 (H1975 cell)]: ratio of ELISA IC50 values
Method: as §4
(2) The compounds to be tested were diluted in accordance with the drug dilution method in the MTT assay. 10 μL of the diluted compound solution or diluted DMSO was added to the corresponding wells of the cell culture plate, and the final concentration of DMSO was 0.5% (V/V). The plate was cultured at 37° C. in 5% (v/v) CO2 for 1 h. The cell culture system treated with DMSO alone was used as cell control.
(3) The medium was removed and then 100 μL of cell lysis solution was added. The plate was sealed and placed in a refrigerator at −80° C. overnight. The cell lysis buffer was used as blank control.
The assay was conducted according to the instructions given in R&D DYC1095E or R&D DYC1095BE.
(5) 40 μL of cell lysis buffer and 60 μL of cell lysis solution were added and the plate was incubated at 25° C. with shaking for 2 hours.
as §5
(9) A reagent and B reagent in the TMB substrate (R&D DY999) were mixed in 1:1. 100 μL of the mixture was added to each well and incubated in dark at 25° C. with shaking for 20 min.
(11) The plate was read with a microplate reader (Thermo Multiskan K3). OD 450 values and OD570 values of the cell control, blank control, and drug treatment wells were measured. ODcell, ODblank and ODdrug treatment were obtained by subtracting the corresponding OD570 value from the OD 450 value of the same well.
2.3 Data Analysis Inhibition rate (%)=100%×(ODcell−ODdrug treatment)/(ODcell−ODblank)

wild-type EGFR kinase = wild-type EGFR kinase (Homo sapiens (Human), UniProt P00533); experiment: z'-lyte assay of inhibition activity on wild-type EGFR kinase; type: biochemical; details: 10 μM ATP, 0.8 ng/μL kinase, read-out: EGFR WT (IC50/μM)
Method: All reagents used in the following z′-lyte assay were purchased from Invitrogen.
The working concentrations of each component in 10 μL wild-type EGER kinase reaction system were: 10 μM ATP, 0.8 ng/μL wild-type EGFR kinase, 2 μM Tyr04 substrate (Invitrogen, PV3193). The concentration of DMSO after addition of the compound to be tested was 2 vol %.
10 mM drug stock solution was dissolved at room temperature and diluted to a final concentration of 4-0.002 μM with 8 vol % DMSO solution. […] Then 2.5 μl of ATP was added to initiate the reaction. Wherein, ATP was replaced by the reaction buffer in C1 well, no drug was added to C2 well, and the phosphorylated substrate was added to C3 well according to the instructions. The mixture was allowed to react at 25° C. in a shaker in dark for 60 min, 5 μL of Development Reagent B (invitrogen, diluted with TR-FRET dilution buffer) was added and allowed to react at room temperature in the shaker for 60 minutes.
The inhibition rate was calculated according to the following method (refer to the instructions of Invitronen, PV3193):
1. ER=Coumarin Emission (450 nm)/Fluorescein Emission (520 mn)
3. Inhibition ratio (IR)=(1−(phospholylation ratio of the test compound)/(phosphorylation ratio of C2))×100%
The half-inhibitory concentration IC50 was obtained through fitting calculation by using XLFIT 5.0 software (IDBS, UK).

[3] = test system: T790M mutant cell line H1975; details: background statement; cited from earlier work
[4] = Homo sapiens, A-431, cell growth

EGFR phosphorylation in H1975 (EGFR T790M mutant) cells, sequence (P00533 25-1210 T790M/L858R): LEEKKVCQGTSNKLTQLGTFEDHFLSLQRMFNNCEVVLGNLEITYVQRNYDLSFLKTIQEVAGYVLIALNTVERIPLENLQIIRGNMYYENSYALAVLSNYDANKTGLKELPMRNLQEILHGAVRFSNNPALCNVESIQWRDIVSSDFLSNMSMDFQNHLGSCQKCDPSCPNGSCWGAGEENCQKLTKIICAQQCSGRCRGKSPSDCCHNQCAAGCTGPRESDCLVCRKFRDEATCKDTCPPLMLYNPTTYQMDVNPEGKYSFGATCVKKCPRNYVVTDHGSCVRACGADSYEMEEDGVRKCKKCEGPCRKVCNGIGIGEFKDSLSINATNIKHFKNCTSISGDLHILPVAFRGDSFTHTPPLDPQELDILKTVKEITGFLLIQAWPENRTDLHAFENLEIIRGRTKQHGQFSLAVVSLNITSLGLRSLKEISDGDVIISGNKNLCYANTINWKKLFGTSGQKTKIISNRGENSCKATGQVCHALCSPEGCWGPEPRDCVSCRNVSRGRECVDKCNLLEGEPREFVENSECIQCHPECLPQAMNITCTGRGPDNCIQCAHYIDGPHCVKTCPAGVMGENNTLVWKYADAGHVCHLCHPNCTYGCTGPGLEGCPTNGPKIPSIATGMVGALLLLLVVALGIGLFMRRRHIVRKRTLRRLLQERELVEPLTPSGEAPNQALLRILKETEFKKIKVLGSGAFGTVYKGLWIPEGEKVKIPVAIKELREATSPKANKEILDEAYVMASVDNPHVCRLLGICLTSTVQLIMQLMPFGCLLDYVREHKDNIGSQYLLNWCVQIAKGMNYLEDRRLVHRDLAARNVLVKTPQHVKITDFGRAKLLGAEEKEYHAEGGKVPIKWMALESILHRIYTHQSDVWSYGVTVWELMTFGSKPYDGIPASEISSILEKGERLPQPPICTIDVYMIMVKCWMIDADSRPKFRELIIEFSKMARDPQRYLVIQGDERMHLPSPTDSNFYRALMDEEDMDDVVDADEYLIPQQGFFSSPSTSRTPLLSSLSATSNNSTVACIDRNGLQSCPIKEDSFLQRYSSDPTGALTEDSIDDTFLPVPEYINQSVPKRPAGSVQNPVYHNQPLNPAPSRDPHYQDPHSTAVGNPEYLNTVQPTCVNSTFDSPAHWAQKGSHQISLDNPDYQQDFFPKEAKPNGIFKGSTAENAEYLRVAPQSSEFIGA
EGFR phosphorylation in A431 (EGFR wild-type) cells, sequence (P00533 25-1210): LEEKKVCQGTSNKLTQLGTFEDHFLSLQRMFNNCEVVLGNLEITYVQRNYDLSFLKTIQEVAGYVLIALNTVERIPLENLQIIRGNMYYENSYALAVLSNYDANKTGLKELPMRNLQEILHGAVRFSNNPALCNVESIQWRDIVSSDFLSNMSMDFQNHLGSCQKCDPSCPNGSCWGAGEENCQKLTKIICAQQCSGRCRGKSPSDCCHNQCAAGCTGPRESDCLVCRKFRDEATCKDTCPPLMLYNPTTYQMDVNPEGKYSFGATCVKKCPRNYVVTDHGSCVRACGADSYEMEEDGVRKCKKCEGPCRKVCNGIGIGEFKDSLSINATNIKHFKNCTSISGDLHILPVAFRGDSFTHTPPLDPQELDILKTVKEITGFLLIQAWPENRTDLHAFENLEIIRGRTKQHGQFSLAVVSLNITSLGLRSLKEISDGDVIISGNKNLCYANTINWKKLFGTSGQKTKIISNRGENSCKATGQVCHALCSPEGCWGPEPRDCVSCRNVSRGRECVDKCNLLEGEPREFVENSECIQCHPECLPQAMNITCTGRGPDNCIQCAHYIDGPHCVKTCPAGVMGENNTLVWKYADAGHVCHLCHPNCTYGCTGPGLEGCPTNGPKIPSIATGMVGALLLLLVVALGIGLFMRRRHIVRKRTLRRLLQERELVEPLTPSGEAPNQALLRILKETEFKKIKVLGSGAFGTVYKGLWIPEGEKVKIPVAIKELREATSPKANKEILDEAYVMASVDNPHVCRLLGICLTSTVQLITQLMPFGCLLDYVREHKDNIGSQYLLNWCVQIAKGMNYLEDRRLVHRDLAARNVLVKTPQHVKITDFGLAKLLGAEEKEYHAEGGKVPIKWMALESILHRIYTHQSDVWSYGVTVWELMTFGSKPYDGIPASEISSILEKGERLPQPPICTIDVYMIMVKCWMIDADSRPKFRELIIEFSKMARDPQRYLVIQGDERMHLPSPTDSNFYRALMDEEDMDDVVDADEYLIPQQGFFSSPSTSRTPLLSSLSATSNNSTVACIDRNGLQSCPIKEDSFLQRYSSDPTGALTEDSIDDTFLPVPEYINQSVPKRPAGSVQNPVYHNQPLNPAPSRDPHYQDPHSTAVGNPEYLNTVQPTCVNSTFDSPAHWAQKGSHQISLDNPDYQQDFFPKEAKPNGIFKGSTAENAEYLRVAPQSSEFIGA
wild-type EGFR kinase, sequence (P00533 25-1210): as above

Compound	IC50 (H1975 cells; Homo sapiens, NCI-H1975) [µM]	IC50 (NIH3T3 cells; Mus musculus, NIH3T3, 72 hours) [µM]	Selective inhibitory activity against cell growth [IC50 (A431 cell)/IC50 (H1975 cell)] (H1975 cells)	IC50 [1] [µM]	IC50 (A431 cells; [4]) [µM]	IC50 [2] [µM]	Selective inhibitory activity against targets at the cell level [IC50 (A431 cell)/IC50 (H1975 cell)] [2]	IC50 (wild-type EGFR kinase) [µM]	IC50 (H1975 cells) [µM]	IC50 (A431 cells; cell growth) [µM]	IC50 (NIH3T3 cells; 72 hours) [µM]	activity in the T790M mutant cell line H1975 [3]
CN(C)C/C=C/C(=O)Nc1cc2c(Nc3ccc(F)c(Cl)c3)ncnc2cc1O[C@H]1CCOC1 [BIBW2992, reference compound]	0.088	2.75										
C=CC(=O)Nc1cc(Nc2nc(-c3cnn(C)c3)c3cc[nH]c3n2)c(OC)cc1N(C)CCN(C)C [Compound 1, N-(2-((2-(dimethylamino)ethyl)(methyl)amino)-4-methoxy-5-(4(1-methyl-1H-pyrazol-4-yl)-7H-pyrrolo[2,3-d]pyrimidn-2-ylamino)phenyl)acrylamide]	0.043	> 10	36.3	3.67	1.56	0.112	32.7	0.393				
C=CC(=O)Nc1cc(Nc2nc(N3CCOCC3)c3cc[nH]c3n2)c(OC)cc1N(C)CCN(C)C [Compound 2, N-(2-((2-(dimethylamino)ethyl)(methyl)amino)-4-methoxy-5-(4-morpholino-7H-pyrrolo[2,3-d]pyrimidin-2-ylamino)phenyl)acrylamide]	0.143	> 10	28	> 10	4.01	0.322	31	> 1				
C=CC(=O)Nc1cc(Nc2nc(OC3CN(S(C)(=O)=O)C3)c3cc[nH]c3n2)c(OC)cc1N(C)CCN(C)C [Compound 3, N-(2-((2-(dimethylamino)ethyl)(methyl)amino)-4-methoxy-5-(4-(1-(methylsulfonyl)azetidin-3-yloxy)-7H-pyrrolo[2,3-d]pyrimidin-2-ylamino)phenyl)acryl amide]			101	0.86		0.032	26.9	0.088	0.029	2.93	> 10	
C=CC(=O)Nc1cc(Nc2nc(-c3cnc4c(ccn4C)c3)c3cc[nH]c3n2)c(OC)cc1N(C)CCN(C)C [Compound 4, N-(2-((2-(dimethylamino)ethyl)(methyl)amino)-4-methoxy-5-(4-(1-methyl-1H-pyrrolo[2,3-b]pyridin-5-yl)-7H-pyrrolo[2,3-d]pyrimidin-2-ylamino)phenyl)acrylamide]	0.029	2.09	38.7	0.254	1.12	0.015	17	0.039				
C=CC(=O)Nc1cc(Nc2nc(-c3cn(C)c4ccccc34)c3cc[nH]c3n2)c(OC)cc1N(C)CCN(C)C [Compound 5, N-(2-((2-(dimethylamino)ethyl)(methyl)amino)-4-methoxy-5-(4-(1-methyl-1H-indol-3-yl)-7H-pyrrolo[2,3-d]pyrimidin-2-ylamino)phenyl)acrylamide]	0.009	2.63	34.2	0.119	0.308	0.016	7.4	0.015				
C=CC(=O)Nc1cc(Nc2nc(-c3cccnc3)c3cc[nH]c3n2)c(OC)cc1N(C)CCN(C)C [Compound 6, N-(2-((2-(dimethylamino)ethyl)(methyl)amino)-4-methoxy-5-(4-(pyridin-3-yl)-7H-pyrrolo[2,3-d]pyrimidin-2ylamino)phenyl)acrylamide]	0.079	5.1	22.8	1.67	1.8	0.096	17.4	0.347				
C=CC(=O)Nc1cc(Nc2nc(-c3ccccc3)c3cc[nH]c3n2)c(OC)cc1N(C)CCN(C)C [Compound 7, N-(2-((2-(dimethylamino)ethyl)(methyl)amino)-4-methoxy-5-(4-phenyl-7H-pyrrolo[2,3-d]pyrimidin-2-ylamino)phenyl)acrylamide]	0.225	2.42	7.5	1.87	1.69	0.204	9.2	0.315				
C=CC(=O)Nc1cc(Nc2nc(-c3cnn(C)c3)c3cc[nH]c3n2)c(OC)cc1N1CCC(N(C)C)CC1 [Compound 9, N-(2-(4-(dimethylamino)piperidin-1-yl)-4-methoxy-5-(4-(1-methyl-1H-pyrazol-4-yl)-7H-pyrrolo[2,3-D]pyrimidin-2-ylamino)phenyl)acrylamide]	0.3	> 10	14.5	> 10	4.34	0.384	>26	> 1				
C=CC(=O)Nc1cc(Nc2nc(-c3cnn(C)c3)c3cc[nH]c3n2)c(OC)cc1OCCN(C)C [Compound 10, N-(2-(2-(dimethylamino)etboxy)-4-methoxy-5-(4-(1-methyl-1H-pyrazol-4-yl)-7H-pyrrolo[2,3-d]pyrimidin-2-ylamino)phenyl)acrylamide]	0.112	> 10	34	8.98	3.8	0.166	54.1					
C=CC(=O)Nc1cc(Nc2nc(-c3cnn(C)c3)c3cc[nH]c3n2)c(OC)cc1N1CC(N(C)C)C1 [Compound 11, N-(2-(3-(dimethylamino)azetidin-1-yl)-4-methoxy-5-(4-(1-methyl-1H-pyrazol-4-yl)-7H-pyrrolo[2,3-d]pyrimidin-2-ylamino)phenyl)acrylamide Formate]								> 1				
C=CC(=O)Nc1cc(Nc2nc(-c3cnn(C)c3)c3cc[nH]c3n2)c(OC)cc1N1CCN(C)CC1 [Compound 12, N-(4-methoxy-5-(4-(1-methyl-1H-pyrazol-4-yl)-7H-pyrrolo[2,3-d]pyrimidin-2-ylamino)-2-(4-methylpiperazin-1-yl)phenyl)acrylamide]								> 1				
C=CC(=O)Nc1cc(Nc2nc(-c3cnn(C)c3)c3c(Cl)c[nH]c3n2)c(OC)cc1N1CCC(N(C)C)CC1 [Compound 13, N-(5-(5-chloro-4-(1-methyl-1H-pyrazol-4-yl)-7H-pyrrolo[2,3-d]pyrimidin-2-ylamino)-2-(4(dimethylamino)piperidin-1-yl)-4-methoxyphenyl)acrylamide]	0.531	> 10			3.04							
C#Cc1cccc(Nc2ncnc3cc(OCCOC)c(OCCOC)cc23)c1 [erlotinib]												greater than 3 uM
COc1cc2ncnc(Nc3ccc(F)c(Cl)c3)c2cc1OCCCN1CCOCC1 [gefitinib]												greater than 3 uM

Source: patent US9890168B2, “2,4-disubstituted 7H-pyrrolo[2,3-d]pyrimidine derivative, preparation method and medicinal use thereof” (Shanghai Haiyan Pharmaceutical Technology Co., Ltd., priority 2014, dated 2018)
